Patent publication US20170291905A1, “ARGININE […] INHIBITORS AND USES THEREOF” (Epizyme, Inc., priority 2014, published 2017)

target: T1, full-length human PRMT1 isoform 1 (GST-tagged) (Homo sapiens, UniProt Q99873); test: PRMT1 biochemical assay (3H-SAM Flashplate, histone H4 36-50 peptide); conditions: 0.5 nM PRMT1, 30 min preincubation, 20 nM peptide
T1 construct: GST-tagged PRMT1 was eluted with 50 mM Tris, 2 mM glutathione, pH 7.8, dialysed in buffer A and concentrated; made in house; host or cells: High Five insect cells (baculovirus)
Source text: S-adenosylmethionine (SAM), S-adenosylhomocysteine (SAH), bicine, Tween20, dimethylsulfoxide (DMSO), bovine skin gelatin (BSG), and Tris(2-carboxyethyl)phosphine hydrochloride solution (TCEP) were purchased from Sigma-Aldrich at the highest level of purity possible. ^3H-SAM was purchase from American Radiolabeled Chemicals with a specific activity of 80 Ci/mmol. 384-well streptavidin Flashplates were purchased from PerkinElmer.
Peptide representative of human histone H4 residues 36-50 was synthesized with an N-terminal linker-affinity tag motif and a C-terminal amide cap by 21st Century Biochemicals. The peptide was purified by high-performance liquid chromatography (HPLC) to greater than 95% purity and confirmed by liquid chromatography mass spectrometry (LC-MS). The sequence was Biot-Ahx-[…]-amide (SEQ ID NO.:1).
Full-length human PRMT1 isoform 1 (NM_001536.5) transcript clone was amplified from an HEK 293 cDNA library, incorporating flanking 5′ sequence encoding a FLAG tag ([…]) (SEQ ID NO.:2) fused directly to Met 1 of PRMT1. The amplified gene was subcloned into pFastBacI (Life Technologies) modified to encode an N-terminal GST tag and a TEV cleavage sequence
Recombinant baculovirus were generated according to Bac-to-Bac kit instructions (Life Technologies). Protein over-expression was accomplished by infecting exponentially growing High Five insect cell culture at 1.5×10^6 cell/ml with 1:100 ratio of virus. Infections were carried out at 27° C. for 48 hours, harvested by centrifugation, and stored at −80° C. for purification.
GST-tagged PRMT1 was eluted with 50 mM Tris, 2 mM glutathione, pH 7.8, dialysed in buffer A and concentrated to 1 mg/mL. The purity of recovered protein was 73%. Reference: Wasilko, D. J. and S. E. Lee: “TIPS: titerless infected-cells preservation and scale-up” Bioprocess J., 5 (2006), pp. 29-32.
General Procedure for PRMT1 Enzyme Assays on Peptide Substrates.
The assays were all performed in a buffer consisting of 20 mM Bicine (pH=7.6), 1 mM TCEP, 0.005% BSG, and 0.002% Tween 20, prepared on the day of use. Compounds in 100% DMSO (1 ul) were spotted into a polypropylene 384-well V-bottom plates (Greiner) using a Platemate Plus outfitted with a 384-channel head (Thermo Scientific). DMSO (1 ul) was added to Columns 11, 12, 23, 24, rows A-H for the maximum signal control and 1 ul of SAH, a known product and inhibitor of PRMT1, was added to columns 11, 12, 23, 24, rows I-P for the minimum signal control. A cocktail (40 ul) containing the PRMT1 enzyme was added by Multidrop Combi (Thermo-Fisher). The compounds were allowed to incubate with PRMT1 for 30 min at room temperature, then a cocktail (10 ul) containing SAM and peptide was added to initiate the reaction (final volume=51 ul). The final concentrations of the components were as follows: PRMT1 was 0.5 nM, ^3H-SAM was 200 nM, non-radiolabeled SAM was 1.5 uM, peptide was 20 nM, SAH in the minimum signal control wells was 1 mM, and the DMSO concentration was 2%. The assays were stopped by the addition of non-radiolabeled SAM (10 ul) to a final concentration of 300 uM, which dilutes the ^3H-SAM to a level where its incorporation into the peptide substrate is no longer detectable. 50 ul of the reaction in the 384-well polypropylene plate was then transferred to a 384-well Flashplate and the biotinylated peptides were allowed to bind to the streptavidin surface for at least 1 hour before being washed once with 0.1% Tween20 in a Biotek ELx405 plate washer. The plates were then read in a PerkinElmer TopCount plate reader to measure the quantity of ^3H-labeled peptide bound to the Flashplate surface, measured as disintegrations per minute (dpm) or alternatively, referred to as counts per minute (cpm).
Where dpm=disintegrations per minute, cmpd=signal in assay well, and min and max are the respective minimum and maximum signal controls. […]

T1 sequence (Q99873 with tags, fused parts or gaps): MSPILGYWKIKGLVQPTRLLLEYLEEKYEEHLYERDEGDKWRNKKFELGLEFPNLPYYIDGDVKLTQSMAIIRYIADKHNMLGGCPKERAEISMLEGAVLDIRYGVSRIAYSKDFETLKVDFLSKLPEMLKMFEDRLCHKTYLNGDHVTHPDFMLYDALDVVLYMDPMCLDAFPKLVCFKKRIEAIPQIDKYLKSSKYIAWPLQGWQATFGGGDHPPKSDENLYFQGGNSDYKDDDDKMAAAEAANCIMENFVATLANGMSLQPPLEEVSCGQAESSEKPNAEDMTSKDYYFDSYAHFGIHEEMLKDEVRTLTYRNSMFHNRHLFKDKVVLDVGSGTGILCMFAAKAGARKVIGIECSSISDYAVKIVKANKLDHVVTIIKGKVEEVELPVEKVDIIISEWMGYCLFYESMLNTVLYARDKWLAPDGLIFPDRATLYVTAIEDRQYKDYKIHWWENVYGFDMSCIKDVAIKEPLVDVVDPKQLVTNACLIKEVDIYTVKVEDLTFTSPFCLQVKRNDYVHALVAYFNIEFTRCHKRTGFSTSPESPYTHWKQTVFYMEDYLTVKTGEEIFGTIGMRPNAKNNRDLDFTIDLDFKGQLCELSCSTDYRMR

Row | SMILES | IC50
1 | CNCCN(C)Cc1c[nH]nc1C1CCC(C)(C)[C@H](COCCOC)C1 (stereo partly drawn) [compound 35, {2-[({3-[(3R)-3-[(2-methoxyethoxy)methyl]-4,4-dimethylcyclohexyl]-1H-pyrazol-4-yl}methyl)(methyl)amino]ethyl}(methyl)amine] | 51.9 nM
2 | CCCOCC1(COCCC)CCC(c2n[nH]cc2CN(C)CCNC)CC1 [compound 36, N^1-((3-(4,4-bis(propoxymethyl)cyclohexyl)-1H-pyrazol-4-yl)methyl)-N^1,N^2-dimethylethane-1,2-diamine] | 7.93 nM
3 | CC[C@]12CC[C@](CC)(C[C@H](c3n[nH]cc3CN(C)CCNC)C1)O2 [compound 37, N1-((3-((1R,3r,5S)-1,5-diethyl-8-oxabicyclo[3.2.1]octan-3-yl)-1H-pyrazol-4-yl)methyl)-N1,N2-dimethylethane-1,2-diamine] | 25.2 nM
4 | CC[C@]12CC[C@](CC)(C[C@@H](c3n[nH]cc3CN(C)CCNC)C1)O2 [compound 38, N1-((3-((1R,3s,5S)-1,5-diethyl-8-oxabicyclo[3.2.1]octan-3-yl)-1H-pyrazol-4-yl)methyl)-N1,N2-dimethylethane-1,2-diamine] | 111 nM
5 | Cc1[nH]nc([C@H]2CC[C@@]3(CC2)CC(C)(C)CO3)c1CN(C)CCN [compound 51, N1-((3-((5s,8s)-3,3-dimethyl-1-oxaspiro[4.5]decan-8-yl)-5-methyl-1H-pyrazol-4-yl)methyl)-N1-methylethane-1,2-diamine] | 12 nM
6 | Cc1[nH]nc([C@H]2CC[C@]3(CC2)CC(C)(C)CO3)c1CN(C)CCN [compound 52, N1-((3-((5r,8r)-3,3-dimethyl-1-oxaspiro[4.5]decan-8-yl)-5-methyl-1H-pyrazol-4-yl)methyl)-N1-methylethane-1,2-diamine] | 16 nM
7 | CNCCN(C)Cc1c(C)[nH]nc1[C@H]1CC[C@@]2(CC1)CC(C)(C)CO2 [compound 57] | 25.8 nM
8 | CNCCN(C)Cc1c(C)[nH]nc1[C@H]1CC[C@]2(CC1)CC(C)(C)CO2 [compound 58] | 38.7 nM
9 | Cc1[nH]nc(C2CCC3(CC2)CC(C)(C)CO3)c1CN(C)CCN (centres unmarked) [compound 59] | 11.4 nM
10 | CCOCC1(COCC)CC=C(c2n[nH]cc2CN(C)CCNC)CC1 [compound 60] | 14.9 nM
11 | CNCCN(C)Cc1scnc1[C@H]1CC[C@@]2(CC1)CC(C)(C)CO2 [compound 62] | 4.18 nM
12 | CNCCN(C)Cc1nn[nH]c1[C@H]1CC[C@@]2(CC1)CC(C)(C)CO2 [compound 67] | 11.5 nM
13 | CNCCN(C)Cc1nc(C)sc1[C@H]1CC[C@@]2(CC1)CC(C)(C)CO2 [compound 77] | 22.9 nM
14 | CNCCN(C)Cc1sc(C)nc1[C@H]1CC[C@@]2(CC1)CC(C)(C)CO2 [compound 78] | 23 nM
15 | CN(CCN)Cc1nn(C)cc1[C@H]1CC[C@@]2(CC1)CC(C)(C)CO2 [compound 80] | 5.83 nM
16 | CNCCN(C)Cc1ncsc1[C@H]1CC[C@@]2(CC1)CC(C)(C)CO2 [compound 83] | 14.8 nM

Row | SMILES | IC50
17 | CNCCN(C)Cc1nn[nH]c1[C@H]1CC[C@]2(CC1)CC(C)(C)CO2 [compound 89] | 59.7 nM
18 | CNCCN(C)Cc1nc(C)sc1[C@H]1CC[C@]2(CC1)CC(C)(C)CO2 [compound 99] | 35.6 nM
19 | CNCCN(C)Cc1sc(C)nc1[C@H]1CC[C@]2(CC1)CC(C)(C)CO2 [compound 100] | 33.5 nM
20 | CN(CCN)Cc1nn(C)cc1[C@H]1CC[C@]2(CC1)CC(C)(C)CO2 [compound 102] | 21.2 nM
21 | CN(CCN)Cc1c[nH]nc1[C@H]1CC[C@@]2(CC1)CC(C)(C)CO2 [compound 105] | 5.68 nM
22 | CN(CCN)Cc1c[nH]nc1[C@H]1CC[C@]2(CC1)CC(C)(C)CO2 [compound 106] | 45.3 nM
23 | CNCCN(C)Cc1c(C)noc1[C@H]1CC[C@@]2(CC1)CC(C)(C)CO2 [compound 113] | 79.5 nM
24 | CNCCN(C)Cc1c(C)noc1[C@H]1CC[C@]2(CC1)CC(C)(C)CO2 [compound 114] | 121 nM
25 | CNCCN(C)Cc1n[nH]cc1[C@H]1CC[C@@]2(CC1)CC(C)(C)CO2 [compound 115] | 11.5 nM
26 | CNCCN(C)Cc1n[nH]cc1[C@H]1CC[C@]2(CC1)CC(C)(C)CO2 [compound 116] | 22.9 nM
27 | CCOCC1(COCC)CCC(c2n[nH]cc2CN(C)CCN(C)C)CC1 [compound 121] | 38 nM
28 | CCOCC1(COCC)CCC(c2nn(C)cc2CN(C)CCNC)CC1 [compound 122] | 21.1 nM
29 | CCOCC1(COCC)CCC(c2n[nH]cc2CN(C)CCN)CC1 [compound 123] | 4.28 nM
30 | CCOCC1(COCC)CCC(c2nn(C)cc2CN(C)CCN)CC1 [compound 124] | 13.7 nM
31 | CNCCN(C)Cc1c[nH]nc1C1CCC2(CC1)CC(C)(C)OC2=O (centres unmarked) [compound 125] | 10.7 nM
32 | CNCCN(C)Cc1c[nH]nc1[C@H]1CC[C@@]2(CC1)COC(C)(C)C2 [compound 126, N1-((3-((5r,8r)-3,3-dimethyl-2-oxaspiro[4.5]decan-8-yl)-1H-pyrazol-4-yl)methyl)-N1,N2-dimethylethane-1,2-diamine] | 14.3 nM

Results, then the molecule that gave them:

Row | IC50 | SMILES
33 | 20.9 nM | CNCCN(C)Cc1ccnn1[C@H]1CC[C@]2(CC1)CC(C)(C)CO2 [compound 50, N1-((1-((5r,8r)-3,3-dimethyl-1-oxaspiro[4.5]decan-8-yl)-1H-pyrazol-5-yl)methyl)-N1,N2-dimethylethane-1,2-diamine]
34 | 31.9 nM | CNCCN(C)Cc1nn(C)nc1[C@H]1CC[C@@]2(CC1)CC(C)(C)CO2 [compound 64]
35 | > 10000 nM | CNCCN(C)Cc1cnnn1[C@H]1CC[C@@]2(CC1)CC(C)(C)CO2 [compound 65]
36 | 4330 nM | CNCCN(C)Cc1nncn1[C@H]1CC[C@@]2(CC1)CC(C)(C)CO2 [compound 68]
37 | 255 nM | CNCCN(C)Cc1nccn1[C@H]1CC[C@@]2(CC1)CC(C)(C)CO2 [compound 69]
38 | 5100 nM | CNCCN(C)Cc1nnc(C)n1[C@H]1CC[C@@]2(CC1)CC(C)(C)CO2 [compound 71]
39 | 14.6 nM | CNCCN(C)Cc1cncn1[C@H]1CC[C@@]2(CC1)CC(C)(C)CO2 [compound 76]
40 | 22.8 nM | CNCCN(C)Cc1nn(C)cc1[C@H]1CC[C@@]2(CC1)CC(C)(C)CO2 [compound 81]
41 | 14 nM | CNCCN(C)Cc1scnc1[C@H]1CC[C@]2(CC1)CC(C)(C)CO2 [compound 84]
42 | 50.1 nM | CNCCN(C)Cc1nn(C)nc1C1CCC2(CC1)CC(C)(C)CO2 (centres unmarked) [compound 86]
43 | > 10000 nM | CNCCN(C)Cc1nncn1[C@H]1CC[C@]2(CC1)CC(C)(C)CO2 [compound 90]
44 | 1020 nM | CNCCN(C)Cc1nccn1[C@H]1CC[C@]2(CC1)CC(C)(C)CO2 [compound 91]
45 | > 10000 nM | CNCCN(C)Cc1nnc(C)n1[C@H]1CC[C@]2(CC1)CC(C)(C)CO2 [compound 93]
46 | 318 nM | CNCCN(C)Cc1c(Cl)ncn1[C@H]1CC[C@]2(CC1)CC(C)(C)CO2 [compound 97]
47 | 4360 nM | CNCCN(C)Cc1cncn1[C@H]1CC[C@]2(CC1)CC(C)(C)CO2 [compound 98]
48 | 37.2 nM | CNCCN(C)Cc1nn(C)cc1[C@H]1CC[C@]2(CC1)CC(C)(C)CO2 [compound 103]
49 | 51.3 nM | CNCCN(C)Cc1nocc1[C@H]1CC[C@@]2(CC1)CC(C)(C)CO2 [compound 117]
50 | 409 nM | CNCCN(C)Cc1nocc1[C@H]1CC[C@]2(CC1)CC(C)(C)CO2 [compound 118]
